Source: US12484584B2, “Methods and uses of a mixture comprising alpha-cypermethrin and dinotefuran for controlling bed bugs” (BASF AGRO B.V., priority 2020, dated 2025)
Where two headings read alike, the source gives them in different places.

Tested on: C. lectularius
Experiment: residual contact assay in treated glass vials, with Colby synergy analysis
Format: in vivo
Details: Cimex lectularius, 72 h; for mortality at 2 ppm: 2 ppm dinotefuran; for mortality at 4 ppm: 4 ppm dinotefuran; for mortality at 6 ppm: 6 ppm dinotefuran; for mortality at 8 ppm: 8 ppm dinotefuran; for mortality at 1 ppm: 1 ppm alpha-cypermethrin
Procedure: Glass vials (20 mL scintillation) were treated with 445 μL of varying concentrations of α-cypermethrin dissolved in acetone, respectively dinotefuran or mixtures of α-cypermethrin and dinotefuran in the indicated ratios. Vials were turned on their sides and placed on an automated roller table. The vials were rolled (6 rpm) uncapped to allow an even coating of the treatment. After rolling, vials were allowed to completely dry for at least an hour. Each treatment was replicated five times. Approximately six bed bugs, Cimex lectularius, were placed into each vial and were exposed to treatments at room temperature for the duration of the study.
After dose response testing, assays combining two active ingredients were conducted using the same method described above. The rates used in the combination treatments for each active ingredient, α-cypermethrin and dinotefuran, were the same concentrations used when they were tested independently.
When applied in combination, the toxicological interaction between two compounds is classified based on the resultant impact on the observed effect. The interaction is termed antagonistic when the observed effect is less than the Colby expected mortality based on the responses of the two compounds applied independently at the same doses. When the observed effect of two compounds applied in combination is equal to that of the Colby expected mortality based on the responses of the two compounds applied independently, the relationship is described as additive. Finally, a synergistic interaction means that the effect of the two compounds applied in combination is greater than the Colby expected mortality based on the responses of the two compounds applied independently at the same doses.
Ataxia+mortality data at 48 hours were used to determine whether there was a synergistic effect in the combined use of α-cypermethrin and dinotefuran.
Abbott's correction for control mortality and the Colby method for testing synergy were used to analyze combination data. The method is as follows: Abbott's corrected mortality per observation (at 3 DAE)=[(% observed mortality−% control mortality)/(100%−% control mortality)]×100. Colby's expected mortality per combination observation=% mortality (A)+% mortality (B)−(% mortality (A)×% mortality (B))/100. Synergy ratio=% observed mortality/% Colby expected mortality.
Additive interactions have synergy ratios equal to 1, antagonistic interactions have synergy ratios of less than 1, and synergistic interactions have synergy ratios of greater than 1.

[1] = corrected for control mortality, read-out: Abbott's CM (Abbott's corrected mortality)
[2] = residual contact, read-out: Mortality (%) @ 72 h

Work on `CNC(=N[N+](=O)[O-])NCC1CCOC1` (racemic) [dinotefuran, (RS)-1-methyl-2-nitro-3-(tetrahydro-3-furylmethyl) guanidine] yielded a mortality at 2 ppm [1] of 3.4%, a mortality at 2 ppm [2] of 6.7% and a mortality at 4 ppm [1] of 3.4%. For the same compound, the mortality at 4 ppm [2] was 6.7%, the mortality at 6 ppm [1] was 3.4% and the mortality at 6 ppm [2] was 6.7%. For the same compound, the mortality at 8 ppm [1] was 3.4% and the mortality at 8 ppm [2] was 6.7%.

For `CC1(C)C(C=C(Cl)Cl)C1C(=O)OC(C#N)c1cccc(Oc2ccccc2)c1` (racemic) [alpha-cypermethrin, racemate comprising (R)-α-cyano-3-phenoxybenzyl (1S, 3S)-3-(2,2-dichlorovinyl)-2,2-dimethylcyclopropanecarboxylate; (S)-α-cyano-3-phenoxybenzyl (1R, 3R)-3-(2,2-dichlorovinyl)-2,2-dimethylcyclopropanecarboxylate], the mortality at 1 ppm [1] was 24.1% and the mortality at 1 ppm [2] was 26.7%.
